Laboratory results from ChEMBL document CHEMBL1127247, “Isoarecolones and arecolones: selective central nicotinic agonists that cross the blood-brain barrier” (Bioorg Med Chem Lett, 1994).

Assays:
Rattus norvegicus [1] = species on record: Rattus norvegicus; assay: (§1) Effect of compound on accumulation of dopamine metabolite dihydroxyphenyl acetic acid (DOPAC) in nucleus accumbens; assay type: functional, organism-based
Rattus norvegicus [2] = species on record: Rattus norvegicus; assay: (§2) Effect of compound on accumulation of homovanillic acid (HVA) in rat striatum; assay type: functional
[3] = target: Neuronal acetylcholine receptor; assay: Binding affinity for Nicotinic acetylcholine receptor site in rat cortex was determined using [3H]MCC as radioligand
Rattus norvegicus [4] = species on record: Rattus norvegicus; assay: (§3) Effect of compound on accumulation of homovanillic acid (HVA) in nucleus accumbens; assay type: functional
Rattus norvegicus [5] = species on record: Rattus norvegicus; assay: (§4) Effect of compound on accumulation of dopamine metabolite dihydroxyphenyl acetic acid (DOPAC) in rat striatum; assay type: functional
Rattus norvegicus [6] = species on record: Rattus norvegicus; assay: as §2; assay type: functional, organism-based
[7] = target: Muscarinic acetylcholine receptor; assay: Binding affinity for muscarinic receptor site in rat hippocampus was determined using competitive radioligand binding assays employing [3H]OXO-M; assay type: tissue-based
Rattus norvegicus [8] = species on record: Rattus norvegicus; assay: as §4; assay type: functional, organism-based
Rattus norvegicus [9] = species on record: Rattus norvegicus; assay: as §1; assay type: functional
[10] = Selectivity for nicotinic agonist activity was determined between Ki for [3H]-OXO-M and to that for [3H]MCC; assay type: functional
Rattus norvegicus [11] = species on record: Rattus norvegicus; assay: as §3; assay type: functional, organism-based

SMILES	Concentration (Rattus norvegicus [1]) [nM/g]	Control (Rattus norvegicus [2]) [%]	Ki [3] [nM]	Control (Rattus norvegicus [4]) [%]	Control (Rattus norvegicus [5]) [%]	Concentration (Rattus norvegicus [6]) [nM/g]	Ki [7] [nM]	Concentration (Rattus norvegicus [8]) [nM/g]	Control (Rattus norvegicus [9]) [%]	Selectivity [10]	Concentration (Rattus norvegicus [11]) [nM/g]
CC#CC(=O)C1=CCN(C)CC1	1.66	140	22	132	123	1.25	2690	1.91	120	122	0.73
CN1CCC=C(C(=O)Cc2ccccc2)C1			123				1885			15	
CC#CC(=O)C1=CCCN(C)C1	1.79	135	5.8	159	115	1.21	1650	1.8	129	284	0.88
CN1CC=C(C(=O)Cc2ccccc2)CC1			946				3500			4	
CCCC(=O)C1=CCN(C)CC1			67.3				> 5000			> 74	
CC(=O)C1=CCCN(C)C1			32.7				4380			134	
CCCC(=O)C1=CCCN(C)C1			13.1				2730			208	
CN1CCC=C(C(=O)c2ccccc2)C1			178				2450			14	
CCC(=O)C1=CCCN(C)C1 [ARECOLON]			5.8				1950			336	
COC(=O)C1=CCCN(C)C1 [ARECOLINE]			224								
CC(=O)C1=CCN(C)CC1			48.4				5425			112	
CN1CC=C(C(=O)C(C)(C)C)CC1			56.7				6250			110	
CN1CCC[C@H]1c1cccnc1 [NICOTINE]	2	151		157	140	134		2.18	144		0.86
CCCCC(=O)C1=CCN(C)CC1			149				4345			29	
CCC(=O)C1=CCN(C)CC1			25.7				> 5000			> 195	
CCCCC(=O)C1=CCCN(C)C1			61.3				1385			23	
CN1CC=C(C(=O)c2ccccc2)CC1			766				3750			5	
